The values that follow are results of earlier work, collected in patent US11122797B2, “Pest repellent material” (JGC CATALYSTS AND CHEMICALS LTD., priority 2017, dated 2021).

The conditions of the data set: within 6 hours.

Turning to `CCN(CC)C(=O)c1cccc(C)c1` [DEET, N, N-diethyl-m-toluamide], the “DEET applied to the skin transdermally absorbed” value was “about 50%”.
